Results on four compounds are retold here after ChEMBL document CHEMBL3217617 (Medchemcomm, 2012).

One may read the IC50 as the concentration at which inhibition is half-maximal.

Test [1] concerns the target T1, Histone deacetylase (Homo sapiens) (UniProt Q13547+O15379+Q9UBN7+Q92769+Q9UQL6+Q8WUI4+Q9BY41+Q96DB2+P56524+Q9UKV0+Q969S8). In words: Inhibition of HDAC in human HeLa cell nuclear extracts using Ac-NH-GGK(Ac)-AMC as substrate after 180 mins by fluorescence assay relative to control. The test is classed as protein assay.
A further test concerns SK-OV-3. In words: Cytotoxicity against human SKOV3 cells by Alamar Blue assay. The test is classed as functional, cell-based.
Test [2] deals with Cyclin-dependent kinase 2 (Homo sapiens, UniProt P24941). The experiment in a line: Inhibition of recombinant CDK2 (unknown origin) using poly-Glu-Tyr peptide as substrate.
The nature of test [3]: Inhibition of recombinant PKA (unknown origin) using poly-Glu-Tyr peptide as substrate. Also on record: species or system Homo sapiens.
Test [4] addresses T2, Histone deacetylase 1 (Homo sapiens, UniProt Q13547). The experiment in a line: Inhibition of human recombinant HDAC1 expressed in human HEK293 cells using Ac-NH-GGK(Ac)-AMC as substrate after 180 mins by fluorescence assay.
For another test, the system named is A549. The experiment in a line: Cytotoxicity against human A549 cells by Alamar Blue assay. The test is classed as functional, cell-based. (In general: Resazurin is reduced to fluorescent resorufin, in cell work by metabolically active cells.)
Test [5] in a line: Cytotoxicity against human CAL27 cells by Alamar Blue assay. Format: functional, cell-based. As to conditions: CAL-27.
Test [6] has as its target Receptor tyrosine-protein kinase erbB-2 (Homo sapiens, UniProt P04626). The experiment in a line: Inhibition of recombinant HER2 (unknown origin) using poly-Glu-Tyr peptide as substrate.
For the next test, the system named is HeLa. In words: Cytotoxicity against human HeLa cells by Alamar Blue assay. The test is classed as functional, cell-based.
The subject of a further test is A-431. In words: Cytotoxicity against human A431 cells by Alamar Blue assay. Format: functional, cell-based.
In test [7] the target is T3, Histone deacetylase 3 (Homo sapiens, UniProt O15379). The experiment in a line: Inhibition of human recombinant HDAC3 expressed in Sf21 insect cells using Ac-NH-GGK(Ac)-AMC as substrate after 180 mins by fluorescence assay relative to control.
Test [8] concerns the target T3, Histone deacetylase 3. In words: Inhibition of human recombinant HDAC3 expressed in Sf21 insect cells using Ac-NH-GGK(Ac)-AMC as substrate after 180 mins by fluorescence assay.
Test [9] addresses Tyrosine-protein kinase ABL1 (Homo sapiens, UniProt P00519). In words: Inhibition of recombinant Abl1 (unknown origin) using poly-Glu-Tyr peptide as substrate.
Test [10] addresses Histone deacetylase. The experiment in a line: Inhibition of HDAC in human HeLa cells using Boc-K(Ac)-AMC as substrate preincubated for 4 hrs before substrate addition measured after 3 hrs by fluorescence assay. Format: cell-based.
The target of test [11] is Serine/threonine-protein kinase PLK1 (Homo sapiens, UniProt P53350). In words: Inhibition of recombinant Plk1 (unknown origin) using poly-Glu-Tyr peptide as substrate.
For test [12], the target named is Epidermal growth factor receptor (Homo sapiens, UniProt P00533). In words: Inhibition of recombinant EGFR (unknown origin) using poly-Glu-Tyr peptide as substrate.
The next test concerns the target Insulin receptor (Homo sapiens, UniProt P06213). The experiment in a line: Inhibition of recombinant InsR (unknown origin) using poly-Glu-Tyr peptide as substrate.
For test [13], the target named is Histone deacetylase. In words: Inhibition of HDAC in human HeLa cell nuclear extracts using Ac-NH-GGK(Ac)-AMC as substrate after 180 mins by fluorescence assay. The test is classed as protein assay.
Test [14] is described as follows: Cytotoxicity against human SKBR3 cells by Alamar Blue assay. The test is classed as functional, cell-based. Conditions: SK-BR-3.
Test [15] deals with T4, Protein deacetylase HDAC6 (Homo sapiens, UniProt Q9UBN7).
T4 sequence (Q9UBN7 whole entry): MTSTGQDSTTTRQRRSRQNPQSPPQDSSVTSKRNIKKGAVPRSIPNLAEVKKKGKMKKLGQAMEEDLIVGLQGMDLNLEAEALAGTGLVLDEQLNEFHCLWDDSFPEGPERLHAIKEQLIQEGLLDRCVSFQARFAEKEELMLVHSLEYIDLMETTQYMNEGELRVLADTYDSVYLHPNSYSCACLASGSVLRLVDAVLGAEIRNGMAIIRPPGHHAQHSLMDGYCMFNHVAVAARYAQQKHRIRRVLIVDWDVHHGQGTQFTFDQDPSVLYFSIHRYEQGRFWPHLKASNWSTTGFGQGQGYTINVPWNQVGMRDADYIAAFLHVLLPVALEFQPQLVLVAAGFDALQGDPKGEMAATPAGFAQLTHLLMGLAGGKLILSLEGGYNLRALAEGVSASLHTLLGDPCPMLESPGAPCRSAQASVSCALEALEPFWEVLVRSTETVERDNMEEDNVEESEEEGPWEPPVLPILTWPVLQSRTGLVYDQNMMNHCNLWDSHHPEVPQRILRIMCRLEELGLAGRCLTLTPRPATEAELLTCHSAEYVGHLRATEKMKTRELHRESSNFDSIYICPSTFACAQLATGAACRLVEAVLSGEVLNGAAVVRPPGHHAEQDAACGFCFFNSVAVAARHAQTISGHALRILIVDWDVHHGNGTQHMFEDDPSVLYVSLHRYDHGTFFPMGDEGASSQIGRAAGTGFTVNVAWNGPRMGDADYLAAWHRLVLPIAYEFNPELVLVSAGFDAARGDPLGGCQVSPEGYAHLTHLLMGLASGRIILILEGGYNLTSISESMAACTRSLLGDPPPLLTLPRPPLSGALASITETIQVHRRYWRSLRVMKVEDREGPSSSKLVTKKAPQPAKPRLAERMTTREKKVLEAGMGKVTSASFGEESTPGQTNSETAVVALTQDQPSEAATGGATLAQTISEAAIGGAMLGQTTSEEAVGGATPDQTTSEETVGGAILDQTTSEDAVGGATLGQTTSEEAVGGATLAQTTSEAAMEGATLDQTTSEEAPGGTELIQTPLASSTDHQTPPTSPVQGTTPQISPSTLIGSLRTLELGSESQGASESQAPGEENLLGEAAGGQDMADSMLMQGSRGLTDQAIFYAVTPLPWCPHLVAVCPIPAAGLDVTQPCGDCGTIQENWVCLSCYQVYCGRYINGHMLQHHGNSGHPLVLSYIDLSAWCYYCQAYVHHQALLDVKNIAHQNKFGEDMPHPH
The experiment in a line: Inhibition of human recombinant HDAC6 expressed in human HEK293 cells using Ac-NH-GGK(Ac)-AMC as substrate after 180 mins by fluorescence assay.

For another test, the target named is T5, Histone deacetylase 8 (Homo sapiens, UniProt Q9BY41).
T5 sequence (Q9BY41 whole entry): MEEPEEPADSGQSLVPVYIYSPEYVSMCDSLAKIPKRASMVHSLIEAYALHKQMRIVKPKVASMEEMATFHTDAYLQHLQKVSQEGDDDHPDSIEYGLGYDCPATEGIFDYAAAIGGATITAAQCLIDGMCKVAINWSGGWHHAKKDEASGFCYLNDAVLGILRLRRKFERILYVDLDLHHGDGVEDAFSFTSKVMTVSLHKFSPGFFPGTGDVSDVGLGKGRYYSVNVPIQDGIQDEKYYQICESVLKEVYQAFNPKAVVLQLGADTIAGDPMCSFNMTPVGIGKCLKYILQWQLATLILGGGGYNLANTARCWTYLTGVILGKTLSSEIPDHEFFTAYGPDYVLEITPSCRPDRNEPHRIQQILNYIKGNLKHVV
The experiment in a line: Inhibition of human recombinant HDAC8 expressed in Sf21 insect cells using Ac-NH-GGK(Ac)-AMC as substrate after 180 mins by fluorescence assay.

For test [16], the target named is Platelet-derived growth factor receptor beta (Homo sapiens, UniProt P09619). The experiment in a line: Inhibition of recombinant PDGFRbeta (unknown origin) using poly-Glu-Tyr peptide as substrate.
Test [17] concerns the target T2, Histone deacetylase 1. In words: Inhibition of human recombinant HDAC1 expressed in human HEK293 cells using Ac-NH-GGK(Ac)-AMC as substrate after 180 mins by fluorescence assay relative to control.
The target of test [18] is T1, Histone deacetylase (Homo sapiens). The experiment in a line: Inhibition of HDAC in human HeLa cells using Boc-K(Ac)-AMC as substrate preincubated for 4 hrs before substrate addition measured after 3 hrs by fluorescence assay relative to control. The test is classed as cell-based.

T2 sequence (Q13547 whole entry): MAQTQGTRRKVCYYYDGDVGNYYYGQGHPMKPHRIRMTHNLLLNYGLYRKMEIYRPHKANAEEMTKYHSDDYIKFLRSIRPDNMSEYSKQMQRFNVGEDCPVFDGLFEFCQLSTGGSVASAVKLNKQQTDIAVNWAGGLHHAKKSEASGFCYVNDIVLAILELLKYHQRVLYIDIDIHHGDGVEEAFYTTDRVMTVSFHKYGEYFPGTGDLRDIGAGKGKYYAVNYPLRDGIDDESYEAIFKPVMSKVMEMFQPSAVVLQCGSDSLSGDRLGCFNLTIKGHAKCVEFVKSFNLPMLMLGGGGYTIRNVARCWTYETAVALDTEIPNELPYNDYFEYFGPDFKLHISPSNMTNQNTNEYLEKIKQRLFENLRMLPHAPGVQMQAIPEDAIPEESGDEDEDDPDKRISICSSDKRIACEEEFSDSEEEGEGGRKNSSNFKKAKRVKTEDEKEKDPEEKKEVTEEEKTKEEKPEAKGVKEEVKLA
T3 sequence (O15379 whole entry): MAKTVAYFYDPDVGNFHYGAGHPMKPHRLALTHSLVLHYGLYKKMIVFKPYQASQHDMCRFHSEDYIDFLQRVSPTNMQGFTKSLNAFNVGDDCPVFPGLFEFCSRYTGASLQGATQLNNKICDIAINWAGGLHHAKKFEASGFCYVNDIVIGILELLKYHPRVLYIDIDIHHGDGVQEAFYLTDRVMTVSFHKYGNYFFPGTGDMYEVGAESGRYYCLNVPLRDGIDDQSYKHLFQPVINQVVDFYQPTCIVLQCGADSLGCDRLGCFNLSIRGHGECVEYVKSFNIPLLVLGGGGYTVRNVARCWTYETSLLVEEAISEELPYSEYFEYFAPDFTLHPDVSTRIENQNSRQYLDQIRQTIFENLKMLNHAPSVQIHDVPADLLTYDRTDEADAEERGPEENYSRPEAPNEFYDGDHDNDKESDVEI
Chain of Receptor tyrosine-protein kinase erbB-2 (P04626 whole entry): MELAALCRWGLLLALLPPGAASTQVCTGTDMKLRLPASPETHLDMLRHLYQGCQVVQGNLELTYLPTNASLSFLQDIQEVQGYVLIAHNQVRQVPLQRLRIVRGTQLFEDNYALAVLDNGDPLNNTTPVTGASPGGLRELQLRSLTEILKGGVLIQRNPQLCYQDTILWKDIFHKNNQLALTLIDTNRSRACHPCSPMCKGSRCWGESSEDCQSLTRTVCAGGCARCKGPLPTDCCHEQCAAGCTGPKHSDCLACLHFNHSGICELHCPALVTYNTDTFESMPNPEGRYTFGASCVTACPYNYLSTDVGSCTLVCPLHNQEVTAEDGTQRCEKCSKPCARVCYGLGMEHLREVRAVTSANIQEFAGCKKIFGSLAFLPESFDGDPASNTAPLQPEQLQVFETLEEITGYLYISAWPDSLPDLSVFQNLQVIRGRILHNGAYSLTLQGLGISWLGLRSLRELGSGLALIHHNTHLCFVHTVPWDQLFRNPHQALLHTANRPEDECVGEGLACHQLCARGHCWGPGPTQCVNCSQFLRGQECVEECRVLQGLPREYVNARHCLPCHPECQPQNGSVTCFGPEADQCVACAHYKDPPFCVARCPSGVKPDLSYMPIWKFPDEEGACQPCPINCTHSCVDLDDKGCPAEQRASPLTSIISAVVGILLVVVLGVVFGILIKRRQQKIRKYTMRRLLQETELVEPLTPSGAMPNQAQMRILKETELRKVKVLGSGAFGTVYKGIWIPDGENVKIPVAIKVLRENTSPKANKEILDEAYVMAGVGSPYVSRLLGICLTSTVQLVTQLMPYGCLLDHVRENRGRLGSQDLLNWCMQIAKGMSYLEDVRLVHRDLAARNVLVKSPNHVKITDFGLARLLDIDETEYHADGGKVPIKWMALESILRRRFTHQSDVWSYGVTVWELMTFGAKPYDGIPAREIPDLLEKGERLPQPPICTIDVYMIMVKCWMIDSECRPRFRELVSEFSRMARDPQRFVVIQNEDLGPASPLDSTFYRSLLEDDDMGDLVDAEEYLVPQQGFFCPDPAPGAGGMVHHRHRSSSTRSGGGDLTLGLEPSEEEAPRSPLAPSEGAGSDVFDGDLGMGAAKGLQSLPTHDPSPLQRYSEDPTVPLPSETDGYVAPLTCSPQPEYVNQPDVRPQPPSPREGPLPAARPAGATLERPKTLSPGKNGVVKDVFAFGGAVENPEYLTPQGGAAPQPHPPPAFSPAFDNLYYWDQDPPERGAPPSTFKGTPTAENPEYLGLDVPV
Chain of Serine/threonine-protein kinase PLK1 (P53350 whole entry): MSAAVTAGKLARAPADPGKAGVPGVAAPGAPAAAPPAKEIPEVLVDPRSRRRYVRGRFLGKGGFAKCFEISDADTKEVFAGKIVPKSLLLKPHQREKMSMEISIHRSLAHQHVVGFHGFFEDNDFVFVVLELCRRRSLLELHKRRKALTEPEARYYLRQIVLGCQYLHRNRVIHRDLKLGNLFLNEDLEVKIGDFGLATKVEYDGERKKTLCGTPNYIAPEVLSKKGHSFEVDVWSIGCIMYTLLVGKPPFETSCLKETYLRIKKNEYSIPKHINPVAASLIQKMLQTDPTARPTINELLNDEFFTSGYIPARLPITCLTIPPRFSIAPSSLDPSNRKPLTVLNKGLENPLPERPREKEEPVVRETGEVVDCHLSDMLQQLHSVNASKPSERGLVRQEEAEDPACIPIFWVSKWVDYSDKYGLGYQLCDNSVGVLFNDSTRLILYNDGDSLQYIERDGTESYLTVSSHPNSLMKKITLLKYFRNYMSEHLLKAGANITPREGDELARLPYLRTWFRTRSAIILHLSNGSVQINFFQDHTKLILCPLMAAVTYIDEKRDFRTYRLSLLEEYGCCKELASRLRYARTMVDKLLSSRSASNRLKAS
Chain of Insulin receptor (P06213 28-758 limits assumed): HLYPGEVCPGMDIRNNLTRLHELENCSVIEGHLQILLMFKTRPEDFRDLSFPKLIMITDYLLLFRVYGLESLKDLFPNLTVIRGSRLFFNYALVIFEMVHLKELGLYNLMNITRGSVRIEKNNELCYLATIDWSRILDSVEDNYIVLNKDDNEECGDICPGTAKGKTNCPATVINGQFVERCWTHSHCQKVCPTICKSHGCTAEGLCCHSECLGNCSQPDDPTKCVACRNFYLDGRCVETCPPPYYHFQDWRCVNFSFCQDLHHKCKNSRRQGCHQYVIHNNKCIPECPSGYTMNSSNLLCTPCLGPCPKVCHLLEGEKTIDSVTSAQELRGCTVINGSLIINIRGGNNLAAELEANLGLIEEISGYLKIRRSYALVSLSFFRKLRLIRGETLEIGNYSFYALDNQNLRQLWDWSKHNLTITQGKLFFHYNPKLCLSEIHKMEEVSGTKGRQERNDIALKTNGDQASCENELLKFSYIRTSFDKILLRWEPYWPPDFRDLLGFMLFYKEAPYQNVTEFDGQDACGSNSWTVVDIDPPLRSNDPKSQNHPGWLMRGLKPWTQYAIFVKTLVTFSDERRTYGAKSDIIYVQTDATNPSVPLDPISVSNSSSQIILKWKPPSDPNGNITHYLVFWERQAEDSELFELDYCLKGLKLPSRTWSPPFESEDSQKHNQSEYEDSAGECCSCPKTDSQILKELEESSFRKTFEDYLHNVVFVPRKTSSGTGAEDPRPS
Chain of Insulin receptor (P06213 763-1382 limits assumed): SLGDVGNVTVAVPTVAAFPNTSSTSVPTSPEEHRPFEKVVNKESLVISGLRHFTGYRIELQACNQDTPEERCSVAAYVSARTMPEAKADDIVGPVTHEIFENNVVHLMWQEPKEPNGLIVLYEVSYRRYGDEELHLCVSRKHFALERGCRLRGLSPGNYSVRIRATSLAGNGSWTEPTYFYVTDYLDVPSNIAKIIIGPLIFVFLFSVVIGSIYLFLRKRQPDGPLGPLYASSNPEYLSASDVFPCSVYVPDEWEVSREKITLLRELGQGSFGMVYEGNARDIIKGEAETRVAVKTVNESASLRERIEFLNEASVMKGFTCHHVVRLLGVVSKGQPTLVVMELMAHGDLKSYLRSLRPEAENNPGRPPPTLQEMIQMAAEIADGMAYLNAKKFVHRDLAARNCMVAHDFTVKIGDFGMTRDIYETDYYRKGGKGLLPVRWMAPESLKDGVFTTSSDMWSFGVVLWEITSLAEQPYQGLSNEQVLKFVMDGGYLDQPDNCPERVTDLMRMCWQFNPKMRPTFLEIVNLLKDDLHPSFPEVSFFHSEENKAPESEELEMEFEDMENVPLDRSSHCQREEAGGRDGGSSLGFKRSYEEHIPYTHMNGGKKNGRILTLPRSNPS

As to `C#Cc1cccc(Nc2ncnc3ccc(S(=O)(=O)n4ccc(/C=C/C(=O)Nc5ccccc5N)c4)cc23)c1`, the Imax in test [1] came out at 50%; at Histone deacetylase 3 [7] it was 75%. In addition, the half-inhibitory concentration (IC50) with SK-OV-3 amounted to 5.7 µM; in test [2] it was 17 µM; in [3], 24 µM; at Histone deacetylase 1 [4] it was 0.091 µM; in the test with A549, 3.7 µM; in [5], 2.5 µM. Moreover, the IC50 in test [6] stood at 2.9 µM; in the test on HeLa, 3.45 µM; in the test with A-431, 3.7 µM; at Histone deacetylase 3 [8] it was 0.84 µM; in test [9], 15 µM; on Histone deacetylase [10] it was 4.24 µM. The concentration for half-maximal inhibition (IC50) in [11] is 27 µM; in [12], 1.3 µM; on Insulin receptor it was 41 µM; against Histone deacetylase [13] it was 7.2 µM; in [14], 27 µM; in test [15], greater than 32 µM. The IC50 on Histone deacetylase 8 was greater than 32 µM; in test [16] it was 16 µM.

For `C#Cc1cccc(Nc2ncnc3ccc(NC(=O)c4ccc(C(=O)Nc5ccccc5N)nc4)cc23)c1`, the IC50 with SK-OV-3 is 7.7 µM; at Histone deacetylase 1 [4], 0.31 µM; in the test on A549, 39 µM; in test [5] it was 8 µM; in the test with HeLa it was 21.5 µM; in the test on A-431, greater than 16 µM. Besides, the IC50 at Histone deacetylase 3 [8] is 0.44 µM; against Histone deacetylase [10], greater than 15.8 µM; against Histone deacetylase [13], greater than 32 µM; in [14] it was 11 µM; in test [15], greater than 32 µM; at Histone deacetylase 8, greater than 32 µM. At Histone deacetylase 1 [17], the Imax worked out at 70%.

`C#Cc1cccc(Nc2ncnc3cc(NC(=O)c4ccc(C(=O)Nc5ccccc5N)s4)ccc23)c1`: the Imax was determined as 30% in [1], 75% at Histone deacetylase 1 [17] and 70% at Histone deacetylase 3 [7]. Also, the IC50 with SK-OV-3 was determined as 30 µM; at Histone deacetylase 1 [4], 2.2 µM; in the test on A549 it was 0.82 µM; in test [5] it was 1.2 µM; in the test with HeLa, 1.8 µM; in the test on A-431 it was 0.96 µM. For the same compound, the IC50 on Histone deacetylase 3 [8] was 0.77 µM; at Histone deacetylase [10] it was greater than 5.01 µM; at Histone deacetylase [13] it was 0.38 µM; in test [14], 33 µM; in [15], greater than 32 µM; at Histone deacetylase 8, greater than 32 µM.

For the compound `C#Cc1cccc(Nc2ncnc3cc(NC(=O)c4ccc(C(=O)Nc5ccccc5N)cc4)ccc23)c1`, the Imax in test [1] and in test [18] was 30% throughout. For the same compound, the IC50 in the test on SK-OV-3 is greater than 50 µM; at Histone deacetylase 1 [4], 0.8 µM; in the test on A549 it was 1.4 µM; in [5] it was 0.46 µM; in the test on HeLa, 1.7 µM; in the test with A-431 it was 1.6 µM. Further, the 50% inhibitory concentration (IC50) at Histone deacetylase 3 [8] was 0.5 µM; on Histone deacetylase [10], 0.78 µM; against Histone deacetylase [13], 0.2 µM; in test [14], 39 µM; in [15] it was greater than 32 µM; on Histone deacetylase 8 it was greater than 32 µM.
